Structures can show the parent of a compound that is named as a salt.
melting point | Structure (SMILES)
198 °C | CC(C)Cn1c(=O)n(C)c(=O)c2c(Sc3cccs3)c(Cn3cnc4ccccc43)sc21 [Example 51]
237 to 238.2 °C | CC(C)Cn1c(=O)n(C)c(=O)c2c(Sc3nnc[nH]3)c(Cc3csc4ccccc34)sc21 [Example 50, 6-(1-Benzothien3-ylmethyl)-3-methyl-1-(2-methylpropyl)-5-(4H-1,2,4-triazol-3-ylthio)-thieno[2,3-d]pyrimidine-2,4(1H,3H)-dione]
221 to 225 °C | CC(C)Cn1c(=O)n(C)c(=O)c2c(Sc3ncc[nH]3)c(Cc3ccccc3C(F)(F)F)sc21 [Example 31, 5-(1H-Imidazol-2-ylthio)-3-methyl-1-(2-methylpropyl)-6-[[2-(trifluoromethyl)phenyl]methyl]-thieno[2,3-d]pyrimidine-2,4(1H,3H)-dione]
182.8 to 184 °C | CC(C)Cn1c(=O)n(C)c(=O)c2c(Sc3nccs3)c(C(O)c3ccnc4ccccc34)sc21 (centres unmarked) [Example 49, 6-[Hydroxy-(4-quinolinyl)-methyl]-3-methyl-1-(2-methylpropyl)-5-(1,3-thiazol-2-ylthio)-thieno[2,3-d]pyrimidine-2,4(1H,3H)-dione]
141 to 144 °C | CC(C)Cn1c(=O)n(C)c(=O)c2c(Sc3nccs3)c(Cc3ccccc3C(F)(F)F)sc21 [Example 29, 3-Methyl-1-(2-methylpropyl)-5-(2-thiazolylthio)-6-[[2-(trifluoromethyl)-phenyl]methyl]-thieno[2,3-d]pyrimidine-2,4(1H,3H)-dione]
163 °C | CC(C)Cn1c(=O)n(C)c(=O)c2c(Sc3cccs3)c(CN3C(=O)c4ccccc4C3=O)sc21 [Example 54, 6-[(1,3-Dihydro-1,3-dioxo-2H-isoindol-2-yl)methyl]-3-methyl-1-(2-methylpropyl)-5-(2-thienylthio)-thieno[2,3-d]pyrimidine-2,4(1H,3H)-dione]
166.8 to 167.6 °C | CC(C)Cn1c(=O)n(C)c(=O)c2c(Sc3nccs3)c(C(=O)c3ccnc4ccccc34)sc21 [Example 48, 3-Methyl-1-(2-methylpropyl)-6-(4-quinolinylcarbonyl)-5-(1,3-thiazol-2-ylthio)-thieno[2,3-d]pyrimidine-2,4(1H,3H)-dione]
186 to 187 °C | CC(C)Cn1c(=O)n(C)c(=O)c2c(Sc3nc[nH]n3)c(Cc3ccccc3C(F)(F)F)sc21 [Example 13, 3-Methyl-1-(2-methylpropyl)-5-(1H-1,2,4-triazol-3-ylthio)-6-[[2-(trifluoromethyl)phenyl]methyl]-thieno[2,3-d]pyrimidine-2,4(1H,3H)-dione]
169 to 170 °C | CC(C)Cn1c(=O)n(C)c(=O)c2c(Sc3nncs3)c(Cc3ccccc3C(F)(F)F)sc21 [Example 32, 3-Methyl-1-(2-methylpropyl)-5-(1,3,4-thiadiazol-2-ylthio)-6-[2-(trifluoromethyl)benzyl]-thieno[2,3-d]pyrimidine-2,4(1H,3H)dione]

Second part, the molecule before the results:

Structure (SMILES) | melting point
Cc1nc(Sc2c(C(=O)c3ccccc3C(F)(F)F)sc3c2c(=O)n(C)c(=O)n3CC(C)C)n[nH]1 [Example 18] | 220 to 222 °C
CC(C)Cn1c(=O)n(C)c(=O)c2c(Sc3nc(Br)n[nH]3)c(Cc3ccccc3C(F)(F)F)sc21 [Example 40] | 174 to 175 °C
CC(C)Cn1c(=O)n(C)c(=O)c2c(S(=O)(=O)c3nc[nH]n3)c(C(O)c3ccccc3C(F)(F)F)sc21 (centres unmarked) [Example 37, 6-[Hydroxy[2-(trifluoromethyl)phenyl]methyl]-3-methyl-1-(2-methylpropyl)-5-(1H-1,2,4-triazol-3-ylsulfonyl)-thieno[2,3-d]pyrimidine-2,4(1H,3H)-dione] | 198 to 202 °C
CC(C)Cn1c(=O)n(C)c(=O)c2c(Sc3nnc(N)s3)c(Cc3ccccc3C(F)(F)F)sc21 [Example 33, 5-[(5-Amino-1,3,4-thiadiazol-2-yl)thio]-3-methyl-1-(2-methylpropyl)-6-[2-(trifluoromethyl)benzyl]-thieno[2,3-d]pyrimidine-2,4(1H,3H)-dione] | 236 to 237 °C
CC(C)Cn1c(=O)n(C)c(=O)c2c(Sc3ncc[nH]3)c(C(=O)c3ccccc3C(F)(F)F)sc21 [Example 22, 5-(1H-Imidazol-2-ylthio)-3-methyl-1-(2-methylpropyl)-6-[2-(trifluoromethyl)bezoyl]-thieno[2,3-d]pyrimidine-2,4(1H,3H)-dione] | 123 to 127 °C
CC(C)Cn1c(=O)n(C)c(=O)c2c(Sc3n[nH]c(=O)[nH]3)c(Cc3ccccc3C(F)(F)F)sc21 [Example 41, 3-Methyl-1-(2-methylpropyl)-5-[(5-oxo-4,5-dilydro-1H-1,2,4-triazol-3-yl)thio]-6-[2-(trifluoromethyl)phenylmethyl]-thieno[2,3-d]pyrimidine-2,4(1H,3H)-dione] | 205 to 211 °C
CC(C)Cn1c(=O)n(C)c(=O)c2c(S(=O)(=O)c3nncs3)c(Cc3ccccc3C(F)(F)F)sc21 [Example 39, 3-Methyl-1-(2-methylpropl)-5-(1,3,4-thiadiazol-2-ylsulfonyl)-6-[2-(trifluoromethyl)benzyl]-thieno[2,3-d]pyrimidine-2,4(1H,3H)-dione] | 148 to 149 °C
Cc1n[nH]c(Sc2c(Cc3ccccc3C(F)(F)F)sc3c2c(=O)n(C)c(=O)n3CC(C)C)n1 (as salt: hydrochloride) [Example 30, 3-Methyl-1-(2-methylpropyl)-5-[(5-methyl-1H-1,2,4-triazol-3yl)thiol-6-[[2-(trifluoromethyl)phenyl]methyl]-thieno[2,3-d]pyrimidine-2,4(1H,3H)-dione dihydrochloride] | 154 °C
